What all share (type): biochemical
Assay [1] addresses T1, Hck-1 (Homo sapiens, UniProt P08631).
T1 construct: Kinases are expressed as either kinase domains or full length constructs; made in house
Nature of the assay: Kinase inhibition assay (33P transfer), Hck. The following applies: Table 6, Hck-1 kinase inhibition class.

Assay [2] addresses T2, Src (Homo sapiens, UniProt P12931).
T2 construct: Kinases are expressed as either kinase domains or full length constructs; made in house
Put plainly: Kinase inhibition assay (33P transfer), Src. The following applies: Table 6, Src-1 kinase inhibition class. The procedure, abridged:
(§1)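 Kinase domains or full-length enzymes, GST- or polyHis-tagged, were expressed in E. coli or baculovirus High Five cells and affinity-purified. Transfer of 33PO4 from ATP onto plate-bound poly(Glu,Tyr) 4:1 or poly(Arg,Ser) 3:1 was counted by liquid scintillation after a 0.5% phosphoric acid wash. IC50 = concentration halving incorporation.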

The target in assay [3] is T3, c-Met (Homo sapiens, UniProt P08581).
T3 construct: Kinases are expressed as either kinase domains or full length constructs; made in house
Put plainly: Kinase inhibition assay (33P transfer), c-Met. The following applies: Table 2, kinase inhibition class; read-out: Met-1. The procedure, abridged:
as §1

Assay [4] deals with T4, Flt-1 (Homo sapiens, UniProt P17948).
T4 construct: Kinases are expressed as either kinase domains or full length constructs; made in house
Nature of the assay: Kinase inhibition assay (33P transfer), Flt-1. The procedure, abridged:
as §1

Assay [5] addresses T5, EGFR (Homo sapiens, UniProt P00533).
T5 construct: Kinases are expressed as either kinase domains or full length constructs; made in house
Put plainly: Kinase inhibition assay (33P transfer), EGFR. Conditions: Table 2, kinase inhibition class; read-out: EGFR-1. The procedure, abridged: as §1

Assay [6] deals with T6, EPHB4 (Homo sapiens, UniProt P54760).
T6 construct: Kinases are expressed as either kinase domains or full length constructs; made in house
T6 sequence (P54760 16-987): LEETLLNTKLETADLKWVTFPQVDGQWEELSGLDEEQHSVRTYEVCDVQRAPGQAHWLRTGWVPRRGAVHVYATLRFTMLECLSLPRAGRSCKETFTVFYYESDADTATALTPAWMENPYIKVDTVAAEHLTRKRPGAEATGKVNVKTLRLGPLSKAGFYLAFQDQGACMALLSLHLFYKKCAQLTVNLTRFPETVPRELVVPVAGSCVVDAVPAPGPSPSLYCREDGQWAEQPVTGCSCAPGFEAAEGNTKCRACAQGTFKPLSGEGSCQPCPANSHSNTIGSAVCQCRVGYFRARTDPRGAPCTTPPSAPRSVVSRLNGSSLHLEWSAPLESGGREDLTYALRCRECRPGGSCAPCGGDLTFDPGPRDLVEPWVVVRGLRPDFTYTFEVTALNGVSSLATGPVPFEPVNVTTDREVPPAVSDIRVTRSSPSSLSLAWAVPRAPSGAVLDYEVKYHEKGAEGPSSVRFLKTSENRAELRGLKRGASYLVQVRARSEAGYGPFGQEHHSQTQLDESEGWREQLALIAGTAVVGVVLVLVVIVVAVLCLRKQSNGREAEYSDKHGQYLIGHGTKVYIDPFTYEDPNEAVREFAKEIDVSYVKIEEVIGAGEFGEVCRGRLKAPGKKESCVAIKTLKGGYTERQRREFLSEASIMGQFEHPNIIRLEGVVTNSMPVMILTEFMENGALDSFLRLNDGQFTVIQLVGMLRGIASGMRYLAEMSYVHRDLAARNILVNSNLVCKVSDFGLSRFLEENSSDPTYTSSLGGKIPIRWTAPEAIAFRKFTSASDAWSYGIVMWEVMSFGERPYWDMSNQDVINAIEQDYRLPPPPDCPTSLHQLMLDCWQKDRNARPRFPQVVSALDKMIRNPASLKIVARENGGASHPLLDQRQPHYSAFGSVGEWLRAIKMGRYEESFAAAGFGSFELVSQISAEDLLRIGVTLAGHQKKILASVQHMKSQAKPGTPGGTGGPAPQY
Put plainly: Kinase inhibition assay (33P transfer), EPHB4. Conditions: read-out: EPHB4-1.

Assay [7] concerns the target T7, Fyn (Homo sapiens, UniProt P06241).
T7 construct: Kinases are expressed as either kinase domains or full length constructs; made in house
Put plainly: Kinase inhibition assay (33P transfer), Fyn. The following applies: read-out: Fyn-1. The procedure, abridged: as §1

Assay [8] concerns the target T8, Tek (Homo sapiens, UniProt Q02763).
T8 construct: Kinases are expressed as either kinase domains or full length constructs; made in house
Nature of the assay: Kinase inhibition assay (33P transfer), Tek. Conditions: read-out: Tek-1. The procedure, abridged: as §1

The target of assay [9] is T9, AKT (Homo sapiens, UniProt Q9Y243).
T9 construct: Kinases are expressed as either kinase domains or full length constructs; made in house
Put plainly: Kinase inhibition assay (33P transfer), AKT. The following applies: Table 2, kinase inhibition class; read-out: AKT3-1. The procedure, abridged: (§2)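 Radiometric readout: 33P incorporated into surface-bound poly(Glu,Tyr) 4:1 or poly(Arg,Ser) 3:1 is counted by liquid scintillation after a 0.5% phosphoric acid wash. Enzymes were GST or polyHis fusions (kinase domain or full length) from E. coli or High Five insect cells.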

For assay [10], the target named is T10, IGFR-1 (Homo sapiens, UniProt P08069).
T10 construct: Kinases are expressed as either kinase domains or full length constructs; made in house
Nature of the assay: Kinase inhibition assay (33P transfer), IGFR-1. The following applies: Table 2, kinase inhibition class.

The target of assay [11] is T11, Lyn (Homo sapiens, UniProt P07948).
T11 construct: Kinases are expressed as either kinase domains or full length constructs; made in house
Nature of the assay: Kinase inhibition assay (33P transfer), Lyn. The following applies: Table 6, Lyn-1 kinase inhibition class. The procedure, abridged: as §1

Assay [12] has as its target T12, PDGFRB (Homo sapiens, UniProt P09619).
T12 construct: Kinases are expressed as either kinase domains or full length constructs; made in house
Put plainly: Kinase inhibition assay (33P transfer), PDGFRB. The following applies: read-out: PDGFRB-1.

The target in assay [13] is T13, Lck (Homo sapiens, UniProt P06239).
T13 construct: Kinases are expressed as either kinase domains or full length constructs; made in house
Nature of the assay: Kinase inhibition assay (33P transfer), Lck. The following applies: Table 3; read-out: Lck-1. The procedure, abridged:
as §2

Assay [14] deals with T14, FGFR1 (Homo sapiens, UniProt P11362).
T14 construct: Kinases are expressed as either kinase domains or full length constructs; made in house
T14 sequence (P11362 22-822, species assumed): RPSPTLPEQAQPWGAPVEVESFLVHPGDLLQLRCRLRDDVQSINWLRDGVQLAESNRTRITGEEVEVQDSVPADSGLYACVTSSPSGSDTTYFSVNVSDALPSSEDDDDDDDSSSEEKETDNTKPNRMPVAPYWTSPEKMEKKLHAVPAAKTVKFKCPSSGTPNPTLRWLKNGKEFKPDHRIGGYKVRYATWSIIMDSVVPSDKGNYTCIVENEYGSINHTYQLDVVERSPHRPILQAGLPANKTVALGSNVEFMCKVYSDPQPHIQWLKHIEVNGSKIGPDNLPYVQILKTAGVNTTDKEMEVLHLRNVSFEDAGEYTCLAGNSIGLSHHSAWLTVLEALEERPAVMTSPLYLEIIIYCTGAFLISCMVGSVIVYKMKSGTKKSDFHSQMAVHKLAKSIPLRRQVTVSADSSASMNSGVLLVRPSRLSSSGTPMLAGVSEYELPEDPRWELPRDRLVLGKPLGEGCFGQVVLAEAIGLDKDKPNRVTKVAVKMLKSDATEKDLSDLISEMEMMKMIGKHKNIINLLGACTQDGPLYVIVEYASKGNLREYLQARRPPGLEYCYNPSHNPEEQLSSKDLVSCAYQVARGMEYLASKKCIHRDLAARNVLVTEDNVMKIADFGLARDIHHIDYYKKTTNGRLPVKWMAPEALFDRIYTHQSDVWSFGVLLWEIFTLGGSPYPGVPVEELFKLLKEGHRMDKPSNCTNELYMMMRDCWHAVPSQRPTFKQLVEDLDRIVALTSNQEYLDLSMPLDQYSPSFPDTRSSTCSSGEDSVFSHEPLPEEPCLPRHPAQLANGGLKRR
Nature of the assay: Kinase inhibition assay (33P transfer), FGFR1. The following applies: read-out: FGFR1-1.

In assay [15] the target is T15, ErbB4 (Homo sapiens, UniProt Q15303).
T15 construct: Kinases are expressed as either kinase domains or full length constructs; made in house
Put plainly: Kinase inhibition assay (33P transfer), ErbB4. The following applies: read-out: ErbB4-1.

Our source for the IC50 values is patent publication US7074789B2, “Kinase inhibitors” (Amgen Inc., priority 1999, dated 2006).

T2 sequence (P12931 whole entry, species assumed, the tested form may be a part): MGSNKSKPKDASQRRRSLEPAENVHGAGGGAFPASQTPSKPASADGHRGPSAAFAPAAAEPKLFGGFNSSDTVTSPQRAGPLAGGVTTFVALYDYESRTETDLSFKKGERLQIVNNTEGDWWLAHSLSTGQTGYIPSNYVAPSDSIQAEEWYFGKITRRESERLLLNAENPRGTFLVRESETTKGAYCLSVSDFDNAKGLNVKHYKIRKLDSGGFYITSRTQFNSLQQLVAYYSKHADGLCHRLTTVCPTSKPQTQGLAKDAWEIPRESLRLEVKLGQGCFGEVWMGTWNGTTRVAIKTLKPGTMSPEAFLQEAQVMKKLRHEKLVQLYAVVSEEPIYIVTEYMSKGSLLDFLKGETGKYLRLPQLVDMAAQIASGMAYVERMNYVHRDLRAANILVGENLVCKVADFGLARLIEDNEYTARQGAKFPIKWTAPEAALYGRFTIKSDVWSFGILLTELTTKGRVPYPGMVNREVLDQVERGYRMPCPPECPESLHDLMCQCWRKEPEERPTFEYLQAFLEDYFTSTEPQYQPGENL
T12 sequence (P09619 33-1106, species assumed): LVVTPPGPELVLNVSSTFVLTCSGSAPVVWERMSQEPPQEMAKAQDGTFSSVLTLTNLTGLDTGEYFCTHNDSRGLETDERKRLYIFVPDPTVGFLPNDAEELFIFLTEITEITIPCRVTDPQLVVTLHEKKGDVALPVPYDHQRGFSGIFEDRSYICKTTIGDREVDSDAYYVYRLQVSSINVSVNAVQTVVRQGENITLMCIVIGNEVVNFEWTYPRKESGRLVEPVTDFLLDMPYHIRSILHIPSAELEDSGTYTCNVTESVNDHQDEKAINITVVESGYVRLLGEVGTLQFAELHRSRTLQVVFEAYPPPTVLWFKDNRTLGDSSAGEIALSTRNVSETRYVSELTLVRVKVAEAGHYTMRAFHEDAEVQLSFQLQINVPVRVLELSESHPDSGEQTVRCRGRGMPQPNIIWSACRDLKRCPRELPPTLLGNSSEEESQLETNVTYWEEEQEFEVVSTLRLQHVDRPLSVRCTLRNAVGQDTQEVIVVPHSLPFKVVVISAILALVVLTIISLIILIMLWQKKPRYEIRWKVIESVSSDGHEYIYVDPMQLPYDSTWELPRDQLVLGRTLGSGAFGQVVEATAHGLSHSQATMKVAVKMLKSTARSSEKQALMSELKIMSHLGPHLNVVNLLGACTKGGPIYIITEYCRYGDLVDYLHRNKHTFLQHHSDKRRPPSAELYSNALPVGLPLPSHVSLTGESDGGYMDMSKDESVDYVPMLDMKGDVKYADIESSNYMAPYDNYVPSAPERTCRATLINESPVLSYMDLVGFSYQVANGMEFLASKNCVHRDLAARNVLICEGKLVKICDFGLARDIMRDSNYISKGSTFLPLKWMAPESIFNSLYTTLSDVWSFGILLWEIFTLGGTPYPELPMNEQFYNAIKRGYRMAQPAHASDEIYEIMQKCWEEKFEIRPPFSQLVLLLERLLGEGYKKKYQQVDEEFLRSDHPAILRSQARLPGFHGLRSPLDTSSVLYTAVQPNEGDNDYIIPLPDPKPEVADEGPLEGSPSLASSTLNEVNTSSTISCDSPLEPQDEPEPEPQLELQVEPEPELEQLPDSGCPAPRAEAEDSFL
T8 sequence (Q02763 23-1124, species assumed): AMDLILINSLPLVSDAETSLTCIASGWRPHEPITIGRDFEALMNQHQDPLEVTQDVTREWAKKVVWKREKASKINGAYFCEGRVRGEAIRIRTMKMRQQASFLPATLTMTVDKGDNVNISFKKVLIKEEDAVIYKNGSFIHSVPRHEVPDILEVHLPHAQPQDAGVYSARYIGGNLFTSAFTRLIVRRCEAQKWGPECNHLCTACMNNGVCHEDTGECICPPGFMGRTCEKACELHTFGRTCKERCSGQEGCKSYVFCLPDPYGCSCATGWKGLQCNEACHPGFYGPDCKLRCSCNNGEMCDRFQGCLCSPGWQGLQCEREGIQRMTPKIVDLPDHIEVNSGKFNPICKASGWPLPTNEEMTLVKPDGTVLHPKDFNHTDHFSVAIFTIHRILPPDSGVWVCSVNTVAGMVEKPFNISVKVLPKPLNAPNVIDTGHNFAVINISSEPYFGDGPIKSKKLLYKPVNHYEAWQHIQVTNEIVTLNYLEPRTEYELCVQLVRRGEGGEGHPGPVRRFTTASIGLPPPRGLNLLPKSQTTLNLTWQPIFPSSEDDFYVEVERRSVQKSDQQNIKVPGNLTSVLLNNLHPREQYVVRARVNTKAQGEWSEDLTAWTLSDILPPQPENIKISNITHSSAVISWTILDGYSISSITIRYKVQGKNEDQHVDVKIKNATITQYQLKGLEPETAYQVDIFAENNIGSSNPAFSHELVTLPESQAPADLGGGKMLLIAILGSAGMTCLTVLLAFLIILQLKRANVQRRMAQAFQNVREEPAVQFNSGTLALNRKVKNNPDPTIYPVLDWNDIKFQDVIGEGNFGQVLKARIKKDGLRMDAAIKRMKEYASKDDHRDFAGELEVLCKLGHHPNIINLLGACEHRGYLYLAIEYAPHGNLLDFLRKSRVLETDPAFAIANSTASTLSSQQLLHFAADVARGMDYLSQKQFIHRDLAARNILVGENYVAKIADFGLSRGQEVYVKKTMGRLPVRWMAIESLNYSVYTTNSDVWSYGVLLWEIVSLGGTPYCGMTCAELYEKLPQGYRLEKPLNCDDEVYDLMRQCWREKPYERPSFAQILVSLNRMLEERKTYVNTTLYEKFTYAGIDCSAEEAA
T5 sequence (P00533 25-1210, species assumed): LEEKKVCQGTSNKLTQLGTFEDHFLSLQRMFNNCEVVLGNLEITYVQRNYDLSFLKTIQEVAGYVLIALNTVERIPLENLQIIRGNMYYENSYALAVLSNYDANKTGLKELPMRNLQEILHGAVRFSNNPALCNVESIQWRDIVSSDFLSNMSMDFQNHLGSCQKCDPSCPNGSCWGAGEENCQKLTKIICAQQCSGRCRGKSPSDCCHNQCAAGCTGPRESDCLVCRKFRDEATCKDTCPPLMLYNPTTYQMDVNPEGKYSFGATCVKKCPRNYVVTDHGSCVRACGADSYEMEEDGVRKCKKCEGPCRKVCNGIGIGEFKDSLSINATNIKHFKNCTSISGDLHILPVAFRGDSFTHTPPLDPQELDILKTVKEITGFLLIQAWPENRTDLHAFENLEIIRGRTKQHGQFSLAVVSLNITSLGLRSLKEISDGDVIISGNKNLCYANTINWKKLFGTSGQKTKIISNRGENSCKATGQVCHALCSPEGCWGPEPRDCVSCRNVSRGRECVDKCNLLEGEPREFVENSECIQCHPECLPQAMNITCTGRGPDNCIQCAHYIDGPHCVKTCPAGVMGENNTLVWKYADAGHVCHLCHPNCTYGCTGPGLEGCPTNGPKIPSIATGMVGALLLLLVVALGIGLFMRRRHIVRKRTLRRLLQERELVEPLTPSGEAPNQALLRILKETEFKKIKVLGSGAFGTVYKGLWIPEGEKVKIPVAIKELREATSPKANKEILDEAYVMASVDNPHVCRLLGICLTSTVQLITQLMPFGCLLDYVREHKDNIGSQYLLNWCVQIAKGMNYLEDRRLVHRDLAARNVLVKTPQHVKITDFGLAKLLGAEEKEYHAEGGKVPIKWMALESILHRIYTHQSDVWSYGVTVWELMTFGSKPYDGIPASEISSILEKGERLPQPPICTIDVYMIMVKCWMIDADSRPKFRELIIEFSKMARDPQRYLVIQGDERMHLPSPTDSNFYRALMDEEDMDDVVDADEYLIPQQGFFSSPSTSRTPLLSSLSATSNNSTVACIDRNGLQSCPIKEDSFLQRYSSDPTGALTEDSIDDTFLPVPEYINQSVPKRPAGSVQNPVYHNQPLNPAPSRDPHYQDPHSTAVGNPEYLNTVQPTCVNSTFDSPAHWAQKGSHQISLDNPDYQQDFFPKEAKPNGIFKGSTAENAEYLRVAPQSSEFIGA

Consider `COc1cc(Nc2ncnc(-n3c(Nc4cccc(C)c4)nc4ccccc43)n2)cc(OC)c1OC` [Compound 386], for which the IC50 in assay [1] was over 9.31 µM; in assay [2] it was over 9.31 µM; in [3], over 9.31 µM; in assay [4], under 0.827 µM; in assay [5], over 9.31 µM; in [6], over 9.31 µM. Further, the IC50 was over 9.31 µM in assay [7]; over 9.31 µM in assay [8]; over 9.31 µM in assay [9]; over 9.31 µM in assay [10]; over 9.31 µM in [11]; 0.827 to 4.96 µM in [12]. In addition, the IC50 in assay [13] was 4.96 to 7.24 µM; in assay [14], under 0.827 µM; in assay [15], over 9.31 µM.

For `COc1cc(Nc2ncnc(-c3ccnc(NCCCO)c3)n2)cc(OC)c1OC` [Compound 180], the IC50 in assay [1], in [2], in assay [3], in [4], in [5] and in assay [6] was over 10.9 µM in each case. For the same compound, the IC50 is 5.82 to 8.49 µM in assay [7]; over 10.9 µM in assay [8]; over 10.9 µM in assay [9]; over 10.9 µM in [10]; 0.97 to 5.82 µM in assay [11]; 8.49 to 10.9 µM in assay [12]. In addition, the IC50 was 0.97 to 5.82 µM in assay [13], over 10.9 µM in [14] and over 10.9 µM in assay [15].

Take `O=C1OCc2ccc(Nc3ncnc(Nc4cc(-c5ccco5)n[nH]4)n3)cc21` [Compound 364]: the IC50 in assay [1] is over 12 µM; in [2] it was over 12 µM; in [3], 1.07 to 6.39 µM; in assay [4], 1.07 to 6.39 µM; in [5], 1.07 to 6.39 µM; in assay [6], 1.07 to 6.39 µM. The IC50 in assay [7] is over 12 µM; in assay [8], over 12 µM; in [9] it was over 12 µM; in assay [10], 1.07 to 6.39 µM; in assay [11], 9.32 to 12 µM; in assay [12], 6.39 to 9.32 µM. Besides, the results for the IC50 in assay [13], in assay [14] and in assay [15] were 6.39 to 9.32 µM, 1.07 to 6.39 µM and over 12 µM, respectively.

For `COc1cc(Nc2ncnc(-n3c(NCc4ccccc4)nc4ccccc43)n2)cc(OC)c1OC` [Compound 371], the IC50 was over 9.31 µM in assay [1]; 0.827 to 4.96 µM in assay [2]; over 9.31 µM in assay [3]; under 0.827 µM in assay [4]; 4.96 to 7.24 µM in assay [5]; under 0.827 µM in assay [6]. Further, the IC50 in [7] is under 0.827 µM; in assay [8] it was over 9.31 µM; in assay [9], over 9.31 µM; in [10] it was over 9.31 µM; in assay [11] it was under 0.827 µM; in assay [12], under 0.827 µM. Moreover, the IC50 in assay [13] is 0.827 to 4.96 µM; in assay [14], under 0.827 µM; in [15] it was over 9.31 µM.

For `COc1cc(Nc2ncnc(Nc3cc(-c4ccc(Cl)cc4)n[nH]3)n2)cc(OC)c1OC` [Compound 367], the IC50 in assay [1] was over 9.91 µM; in assay [2], 0.881 to 5.29 µM; in [3], under 0.881 µM; in assay [4] it was 0.881 to 5.29 µM; in [5] it was 5.29 to 7.71 µM; in assay [6], 0.881 to 5.29 µM. For the same compound, the IC50 is 0.881 to 5.29 µM in assay [7]; 7.71 to 9.91 µM in assay [8]; over 9.91 µM in assay [9]; under 0.881 µM in assay [10]; 0.881 to 5.29 µM in [11]; over 9.91 µM in assay [12]. The IC50 in [13] was 0.881 to 5.29 µM; in [14], 5.29 to 7.71 µM; in assay [15], over 9.91 µM.

With `COc1cc(Nc2ncnc(-n3c(Nc4cccc(C(=O)O)c4)nc4ccccc43)n2)cc(OC)c1OC` [Compound 390], the IC50 in assay [1] was over 8.76 µM; in assay [2] it was 4.67 to 6.82 µM; in [3], 6.82 to 8.76 µM; in assay [4], 0.779 to 4.67 µM; in assay [5], 6.82 to 8.76 µM; in [6], over 8.76 µM. Besides, the IC50 in assay [7] is 0.779 to 4.67 µM; in [8], 4.67 to 6.82 µM; in assay [9], 0.779 to 4.67 µM; in [10] it was over 8.76 µM; in assay [11] it was 0.779 to 4.67 µM; in assay [12], 0.779 to 4.67 µM. The IC50 in assay [13] was under 0.779 µM; in [14] it was 4.67 to 6.82 µM; in assay [15] it was 6.82 to 8.76 µM.

For the compound `COc1cc(Nc2ncnc(-n3c(Cl)nc4ccccc43)n2)cc(OC)c1OC` [Compound 378], the IC50 in assay [1] was over 10.9 µM; in assay [2], 5.81 to 8.48 µM; in assay [3] it was 0.969 to 5.81 µM; in [4] it was 0.969 to 5.81 µM; in assay [5], over 10.9 µM; in [6] it was over 10.9 µM. In addition, the IC50 in [7] was 5.81 to 8.48 µM; in [8], 8.48 to 10.9 µM; in assay [9], over 10.9 µM; in assay [10], 0.969 to 5.81 µM; in [11], 0.969 to 5.81 µM; in assay [12], 0.969 to 5.81 µM. Further, the values for the IC50 in [13], in assay [14] and in assay [15] were 5.81 to 8.48 µM, under 0.969 µM and over 10.9 µM, respectively.

Turning to `COc1cc(Nc2ncnc(Nc3cccc(C)c3)n2)cc(OC)c1OC` [Compound 64], the IC50 is over 12.2 µM in assay [1]; under 1.09 µM in assay [2]; 6.53 to 9.53 µM in assay [3]; over 12.2 µM in assay [4]; under 1.09 µM in [5]; 1.09 to 6.53 µM in [6]. For the same compound, the IC50 in [7] is 1.09 to 6.53 µM; in assay [8], over 12.2 µM; in [9], over 12.2 µM; in assay [10] it was under 1.09 µM; in [11], under 1.09 µM; in assay [12], 9.53 to 12.2 µM. In addition, the IC50 in [13] was 1.09 to 6.53 µM; in assay [14] it was over 12.2 µM; in [15] it was over 12.2 µM.
